How the values were obtained:
[1] = Single SC or IM injection PK study in rats; assay type: in vivo, Sprague Dawley rats
Method: The subjects for the study were 15 male Sprague Dawley rats (8-11 weeks of age; 280-327 g at time of dosing). […] All animals were in healthy condition and admitted to the study.
The Vehicle was a solution of 3% (w/v) polyethylene glycol 3350, 0.3% (v/v) polysorbate 80, 0.7% (w/v) sodium chloride, 0.15% (w/v) L-methionine, 10 mM sodium phosphate buffer at pH 7.4 in water. 25HC3S was mixed into the Vehicle solution to result in drug concentrations of 25, 5 and 10 mg/mL. […] The formulated test article was used within 24 hours of constitution.
Each rat received a single IM or SC injection (2 doses) (N=5/group). The dose level for the IM injection was 25 mg/kg was administered in a dose volume of 1 mL/kg. There were two dose groups for the SC injection route. The dose levels for the SC injections were 25 and 50 mg/kg with a dose volume of […] for both groups (drug concentrations were 5 and 10 mg/mL, respectively). Whole blood samples were collected via the jugular vein or the submandibular vein at pre-dose, 0.5, 1, 2, 4, 8, 12, 24, and 32 hours (h) post dose from each rat; however, the last blood collection may have been collected by terminal cardiac puncture with the animals deeply anesthetized by isoflurane. Blood samples were placed into tubes containing K2EDTA. The blood was gently mixed to assure distribution of the anti-coagulant and the resulting plasma samples underwent analyses to quantify 25HC3 S levels. […] Assessments included, but were not limited to, assessment of activity, posture, respiration, emesis, seizure, hydration status, injection site assessment and overall body condition.

[2] = Solubility of 25HC3S in aqueous solutions, organic solvents or oils; assay type: physicochemical; conditions: various aqueous solutions and FDA approved organic solvents or oils
Source text: (§1) The HPLC technique involved reverse phase HPLC for measuring the concentration of 25HC3 S in the solubility samples.

[3] = system: non-alcoholic steatohepatitis (NASH); assay: Accelerated mouse model of NASH (STZ + HFD), Part II; assay type: in vivo, C57BL/6J mice; conditions: 50 mg/kg daily oral
Method: The subjects for the study were 36 C57BL/6J male mice. Mice were given 200 μg streptozotocin (STZ) at 2 days after birth and fed high fat diet (HFD) starting at four weeks of age until the remainder of the study (13 weeks of age). This intervention early in their lives induces accelerated progression of non-alcoholic steatohepatitis (NASH) and has been thoroughly characterized.
The Vehicle was a solution of 0.5% (w/v) CMC and 0.05% (v/v) Tween-80 in water. Powdered 25HC3 S was constituted into the Vehicle solution to result in drug concentration of 10 mg/mL. The suspensions were homogenized for approximately 5 minutes (with 10 second breaks every 30-40 seconds) and swirled before dosing to maintain homogeneity. The formulated test article was prepared weekly and kept at room temperature.
Mice were divided into treatment groups (N=10/group) and dosed daily by oral gavage with water (control), Vehicle or 50 mg/kg 25HC3 S starting from Week 9 to Week 13 (28 days treatment).

[4] = Stability and impurity profile of 25HC3S suspension at room temperature by HPLC; assay type: physicochemical
Method: as §1
Weigh 80 mg of 25HC3S (Lot #B, Passed through 20 mesh screen and Jet-milled, 3rd pass) into a 10 mL vial. Add to the vial, 8 mL of Vehicle PEG 3350 (with 0.15% L-Methionine and 0.9% NaCl). […] A total of 9 samples were dispensed using 1 mL BD syringes attached to 20G1″ or 25G⅝″ Terumo UTW needles for homogeneity analysis by HPLC (Study #14) and stability study (Study #17).

[5] = Stress study of suspension formulation with hydrogen peroxide; assay type: physicochemical; conditions: stress study of 25HC3S suspension formulation with hydrogen peroxide
Source text: L-Methionine was initially added as an antioxidant. […] Therefore, L-Methionine was removed from the preferred suspension formulation. 25HC3S in Vehicle PEG 3350 (without L-Methionine) was used for further syringeability study (Studies #12 and 13).

[6] = system: bile duct ligation cholestasis; assay: Bile duct ligated (BDL) rat model of cholestasis; assay type: in vivo, CD1 rats
Method: The subjects for the study were CD1 male rats (8 weeks of age, 200-225 g). Rats underwent BDL surgery, where the extrahepatic biliary tract was tightly ligated twice with sutures, then cut between the two ligations. A sham group (N=5/group) was also included in a subset of the studies described. […] The Vehicle was a solution of 0.5% (w/v) CMC and 0.05% (v/v) Tween-80 in water. Powdered 25HC3 S was constituted into the Vehicle solution to result in drug concentrations of 0.833 to 5 mg/mL. The suspensions were homogenized for approximately 5 minutes being combined, with 10 second breaks every 30-40 seconds and swirled before dosing to maintain homogeneity. The formulated test article was prepared weekly and kept at room temperature. […] were divided into treatment groups (N=8-10/group) and dosed daily or every 3 days for 9 days by oral gavage. 5, 10, 30 or 60 mg/kg 25HC3S or Vehicle was given starting one day (Day 1) after BDL surgery. On Day 10, serum was collected after an overnight fast and measured for serum biochemistry.

[7] = Week 9 to 13, vs Vehicle, p<0.05
[8] = daily oral 10 or 30 mg/kg (follow-up study)

C[C@H](CCCC(C)(C)O)[C@H]1CC[C@H]2[C@@H]3CC=C4C[C@@H](OS(=O)(=O)[O-])CC[C@]4(C)[C@H]3CC[C@]12C.[Na+] [Formulation 25HC3S, 5-cholesten-3, 25-diol, 3-sulfate]
mean maximum concentration ([1]; IM 25 mg/kg): 101.9 (±17.1) ng/mL
mean time to maximum plasma drug concentration ([1]; IM 25 mg/kg): 10.4 (±2.2) hr
mean maximum concentration ([1]; SC 25 mg/kg): 127.1 (±93.8) ng/mL
mean time to maximum plasma drug concentration ([1]; SC 25 mg/kg): 7.6 (±4.6) hrs
mean concentration at 32 h ([1]; SC 50 mg/kg): 34.2 (±13.8) ng/mL
mean maximum concentration ([1]; SC 50 mg/kg): 76 (±15.9) ng/mL
mean time to maximum plasma drug concentration ([1]; SC 50 mg/kg): 7.2 (±1.8) hrs
clinical signs ([1]; single IM or SC injection): no observable clinical signs
solubility [2]: low solubility
NAS (NAFLD activity score) ([3]; Week 9 to 13, vs Vehicle): trend of reduction
hepatocyte ballooning [3, 7]: significant reduction
percent area of fibrosis (Sirius red-positive area) [3, 7]: significantly decreased
extent of fibrosis ([3]; compared to baseline Week 9 mice): trended lower
odor after storage ([4]; 25HC3S in Vehicle PEG 3350 with L-Methionine, room temperature for a few months): produced a sulfur-like odor
% peak area for 25HC3S ([4]; after 2 weeks at RT, 25 mg/mL in Vehicle PEG 3350 (with 0.15% L-Methionine), 25HC3S plus two impurities as 100%, n=2): approximately 99.17%
drug potency ([4]; after 2 weeks at RT, time 0 concentration as 100%, n=2, 25 mg/mL in Vehicle PEG 3350 (with 0.15% L-Methionine)): 103.7%
25HC3S by peak area normalization ([4]; final suspension formulation 25 mg/mL, room temperature up to 14 days): 99.172%
stable at ambient room temperature ([4]; suspension 25 mg/mL in Vehicle PEG 3350 (with 0.15% L-Methionine)): at least 2 weeks
oxidative degradation [5]: oxidative degradation did not occur
body weight and other serum chemistry measures ([6]; daily oral 5 mg/kg): little or no differences
Body temperature on Day 9 ([6]; daily oral 5 mg/kg, vs Vehicle): significantly improved
spleen-to-body weight ratio ([6]; daily oral 5 mg/kg, vs Vehicle): significantly improved
body weight gain after surgery ([6]; daily oral 30 mg/kg (pilot study)): significantly improved
body weight gain after surgery ([6]; daily oral 60 mg/kg (pilot study)): modest increases
liver histological analyses [6, 8]: no differences
serum liver enzymes [6, 8]: trends of decrease
Serum total, direct and indirect bilirubin levels ([6]; daily oral 10 or 30 mg/kg, vs Vehicle (follow-up study)): significantly reduced
serum biochemistry analytes, including serum bilirubin ([6]; daily oral 30 or 60 mg/kg (pilot study)): No significant differences
body weight, organ-to-bodyweight ratios or serum clinical chemistry ([6]; oral every three days (Days 1, 4, 7), 10 or 30 mg/kg): no significant differences

— patent publication US20220175798A1, “COMPOSITIONS COMPRISING OXYGENATED CHOLESTEROL SULFATE AND AT LEAST ONE OF POLYALKYLENE GLYCOL, CARBOXYMETHYL CELLULOSE AND POLYOXYLGLYCERIDE” (Durect Corporation, priority 2016, published 2022)
